# Experimental data as given in PubChem BioAssay AID1963858 (Molecular Pharmacology Branch, DTP, NCI, 2024).
# Tested on: HOP-62 multicell spheroids with HUVEC/MSC, viability
# Test: Anticancer human tumor HOP-62 cell line growth inhibition [KRAS2];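 note: viability read after a week of compound exposure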;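 for viability, T/C: 100% = DMSO vehicle-treated spheroids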
# Conditions: for IC50: curve of first compound; for viability, T/C: stronger effect = lower value
# Summary of the method: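 KRAS-mutant tumor cells were grown as spheroids with HUVEC endothelial cells and human MSCs as stroma. Targeted agents were tested alone and with KRAS pathway inhibitors. Doses started at or near clinical Cmax, or 10 microM, descending half-log.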
# [1] = second compound 0.1 µM, first compound 0.01 µM
# [2] = second compound 0.1 µM, first compound 0.0316 µM
# [3] = second compound 0.1 µM, first compound 0.1 µM
# [4] = second compound 0.316 µM, first compound 0.01 µM
# [5] = second compound 0.316 µM, first compound 0.0316 µM
# [6] = second compound 0.316 µM, first compound 0.1 µM
# [7] = second compound 1 µM, first compound 0.01 µM
# [8] = second compound 1 µM, first compound 0.0316 µM
# [9] = second compound 1 µM, first compound 0.1 µM
# [10] = second compound 3.16 µM, first compound 0.01 µM
# [11] = second compound 3.16 µM, first compound 0.0316 µM
# [12] = second compound 3.16 µM, first compound 0.1 µM
# [13] = second compound 10 µM, first compound 0.01 µM
# [14] = second compound 10 µM, first compound 0.0316 µM
# [15] = second compound 10 µM, first compound 0.1 µM
# [16] = second compound 0.1 µM, first compound 0.316 µM
# [17] = second compound 0.1 µM, first compound 1 µM
# [18] = second compound 0.1 µM, first compound 3.16 µM
# [19] = second compound 0.1 µM, first compound 10 µM
# [20] = second compound 0.316 µM, first compound 0.316 µM
# [21] = second compound 0.316 µM, first compound 1 µM
# [22] = second compound 0.316 µM, first compound 3.16 µM
# [23] = second compound 0.316 µM, first compound 10 µM
# [24] = second compound 1 µM, first compound 0.316 µM
# [25] = second compound 1 µM, first compound 1 µM
# [26] = second compound 1 µM, first compound 3.16 µM
# [27] = second compound 1 µM, first compound 10 µM
# [28] = second compound 3.16 µM, first compound 0.316 µM
# [29] = second compound 3.16 µM, first compound 1 µM
# [30] = second compound 3.16 µM, first compound 3.16 µM
# [31] = second compound 3.16 µM, first compound 10 µM
# [32] = second compound 10 µM, first compound 0.316 µM
# [33] = second compound 10 µM, first compound 1 µM
# [34] = second compound 10 µM, first compound 3.16 µM
# [35] = second compound 10 µM, first compound 10 µM
SMILES,IC50 (second compound 0.1 µM) [µM],IC50 (second compound 0.316 µM) [µM],IC50 (second compound 1 µM) [µM],IC50 (second compound 3.16 µM) [µM],IC50 (second compound 10 µM) [µM],"viability, T/C [2] [%]","viability, T/C [3] [%]","viability, T/C [5] [%]","viability, T/C [6] [%]","viability, T/C [8] [%]","viability, T/C [9] [%]","viability, T/C [11] [%]","viability, T/C [12] [%]","viability, T/C [14] [%]","viability, T/C [15] [%]","viability, T/C [16] [%]","viability, T/C [17] [%]","viability, T/C [18] [%]","viability, T/C [20] [%]","viability, T/C [21] [%]",other results
CC(C)n1nc(-c2ccc3oc(N)nc3c2)c2c(N)ncnc21 + COc1cc2nc(C)nc(NC(C)c3cc(N)cc(C(F)(F)F)c3)c2cc1OC1CCOC1,0.00327,0.00234,0.0018,< 0.000316,< 0.000316,18.1,15.5,21.4,13.8,16.5,11.3,11.8,8.61,10.9,8.71,,,,,,"viability, T/C (second compound 0.1 µM, first compound 0.000316 µM): 103%; viability, T/C (second compound 0.1 µM, first compound 0.001 µM): 77%; viability, T/C (second compound 0.1 µM, first compound 0.00316 µM): 50.4%; viability, T/C [1]: 32.2%; viability, T/C (second compound 0.316 µM, first compound 0.000316 µM): 82.5%; viability, T/C (second compound 0.316 µM, first compound 0.001 µM): 64.2%; viability, T/C (second compound 0.316 µM, first compound 0.00316 µM): 46%; viability, T/C [4]: 26.9%; viability, T/C (second compound 1 µM, first compound 0.000316 µM): 86.7%; viability, T/C (second compound 1 µM, first compound 0.001 µM): 67.1%; viability, T/C (second compound 1 µM, first compound 0.00316 µM): 32%; viability, T/C [7]: 23.9%; viability, T/C (second compound 3.16 µM, first compound 0.000316 µM): 47.8%; viability, T/C (second compound 3.16 µM, first compound 0.001 µM): 42.4%; viability, T/C (second compound 3.16 µM, first compound 0.00316 µM): 25.2%; viability, T/C [10]: 17.3%; viability, T/C (second compound 10 µM, first compound 0.000316 µM): 37.7%; viability, T/C (second compound 10 µM, first compound 0.001 µM): 30.7%; viability, T/C (second compound 10 µM, first compound 0.00316 µM): 20.9%; viability, T/C [13]: 14.8%"
COc1cc2nccc(Oc3ccc(NC(=O)C4(C(=O)Nc5ccc(F)cc5)CC4)cc3)c2cc1OC + CC1OCC2(CCN(c3cnc(Sc4ccnc(N)c4Cl)c(N)n3)CC2)C1N,7.77,2.26,0.0316,< 0.0316,< 0.0316,88.3,83,81.8,67.3,43.5,50.5,33.2,24.1,30.8,19.3,88,91.1,77.8,73.4,84.1,"viability, T/C [19]: 42.2%; viability, T/C [22]: 38.9%; viability, T/C [23]: 33.5%; viability, T/C [24]: 49.4%; viability, T/C [25]: 52.7%; viability, T/C [26]: 19%; viability, T/C [27]: 27.5%; viability, T/C [28]: 16.4%; viability, T/C [29]: 17%; viability, T/C [30]: 15.9%; viability, T/C [31]: 9.51%; viability, T/C [32]: 20.4%; viability, T/C [33]: 16.8%; viability, T/C [34]: 11.6%; viability, T/C [35]: 16.7%"
COC(=O)c1ccc2c(C(=Nc3ccc(N(C)C(=O)CN4CCN(C)CC4)cc3)c3ccccc3)c(O)[nH]c2c1 + C=CC(=O)N1CCN(c2nc(=O)n(-c3c(C)ccnc3C(C)C)c3nc(-c4c(O)cccc4F)c(F)cc23)C(C)C1,< 0.0316,< 0.0316,< 0.0316,< 0.0316,< 0.0316,40.2,30.1,36.4,29.9,37.2,32.5,40.5,31.5,47,36.2,25.5,23.3,24.8,26.8,25.7,"viability, T/C [19]: 13%; viability, T/C [22]: 21.7%; viability, T/C [23]: 14.3%; viability, T/C [24]: 26.1%; viability, T/C [25]: 26.9%; viability, T/C [26]: 26.7%; viability, T/C [27]: 2.61%; viability, T/C [28]: 29.9%; viability, T/C [29]: 27.5%; viability, T/C [30]: 22.7%; viability, T/C [31]: 2.66%; viability, T/C [32]: 55.4%; viability, T/C [33]: 30.9%; viability, T/C [34]: 10.2%; viability, T/C [35]: 1.93%"
CC1(C)CCC(CN2CCN(c3ccc(C(=O)NS(=O)(=O)c4ccc(NCC5CCOCC5)c([N+](=O)[O-])c4)c(Oc4cnc5[nH]ccc5c4)c3)CC2)=C(c2ccc(Cl)cc2)C1 + C=CC(=O)N1CCN(c2nc(=O)n(-c3c(C)ccnc3C(C)C)c3nc(-c4c(O)cccc4F)c(F)cc23)C(C)C1,< 0.0316,2.16,2.01,3.67,< 0.0316,46.2,49.4,53.4,51.9,55,57.1,64.9,58.9,43.7,46.5,50.5,43.1,39.1,57.7,56.2,"viability, T/C [19]: 12.1%; viability, T/C [22]: 47.1%; viability, T/C [23]: 20.5%; viability, T/C [24]: 50.8%; viability, T/C [25]: 52.6%; viability, T/C [26]: 48%; viability, T/C [27]: 13%; viability, T/C [28]: 48.7%; viability, T/C [29]: 54.4%; viability, T/C [30]: 55.7%; viability, T/C [31]: 12.2%; viability, T/C [32]: 41.4%; viability, T/C [33]: 41.5%; viability, T/C [34]: 32%; viability, T/C [35]: 16.2%"
CC1COCCN1c1cc(-c2ccnn2C)c2ccnc(-c3ccn[nH]3)c2n1 (stereo not given) + CNCc1ccccc1-c1csc(C(C)Nc2nc(C)nc3cc(OC)c(OC)cc23)c1,0.0549,0.0611,0.0369,< 0.01,< 0.01,73.1,25.3,78.8,28.7,53.9,25.2,0.24,2.16,0.64,0.08,13.5,14,16.4,14.2,15.2,"viability, T/C [1]: 106%; viability, T/C [4]: 106%; viability, T/C [22]: 14.3%; viability, T/C [7]: 94.9%; viability, T/C [24]: 17.4%; viability, T/C [25]: 14.7%; viability, T/C [26]: 12.8%; viability, T/C [10]: 3.68%; viability, T/C [28]: 0.06%; viability, T/C [29]: 0.06%; viability, T/C [30]: 0.27%; viability, T/C [13]: 0.1%; viability, T/C [32]: 0.09%; viability, T/C [33]: 0.58%; viability, T/C [34]: 0.16%"
CC(=O)OC12COC1CC(O)C1(C)C(=O)C(O)C3=C(C)C(OC(=O)C(O)C(NC(=O)OC(C)(C)C)c4ccccc4)CC(O)(C(OC(=O)c4ccccc4)C21)C3(C)C (stereo not given) + CNCc1ccccc1-c1csc(C(C)Nc2nc(C)nc3cc(OC)c(OC)cc23)c1,< 0.01,< 0.01,< 0.01,< 0.01,< 0.01,35.2,38.1,33,38.1,28.4,28,0.11,0.07,1.3,0.1,35,34.9,45.7,31.7,29.2,"viability, T/C [1]: 36.4%; viability, T/C [4]: 34.3%; viability, T/C [22]: 37%; viability, T/C [7]: 34%; viability, T/C [24]: 33.6%; viability, T/C [25]: 39.8%; viability, T/C [26]: 42.4%; viability, T/C [10]: 26.4%; viability, T/C [28]: 0.09%; viability, T/C [29]: 0.11%; viability, T/C [30]: 34.9%; viability, T/C [13]: 3.3%; viability, T/C [32]: 0.14%; viability, T/C [33]: 30.4%; viability, T/C [34]: 2.73%"
